Assay results: patent US20140286892A1, “USE OF A COMPOUND COMPRISING AT LEAST ONE NUCLEOPHILIC FUNCTION FOR CAPTURING CARBONYL COMPOUNDS RESULTING FROM THE REACTION BETWEEN ONE OR MORE COMPOUNDS CONSTITUTING SEBUM AND OZONE” (L'OREAL, priority 2011, published 2014)

Experiment: Capture of nonanal applied to skin after treatment with the cosmetic composition
Format: in vivo
Details: composition with 10% by weight APTES, pH 9 (lactic acid), 4 mg per cm^2 on skin, left to dry, then nonanal applied
Method: A cosmetic composition containing 10% by weight of APTES sold under the name Dow Corning is prepared. The pH of the composition is brought to 9 by adding lactic acid. The cosmetic composition is then applied to the skin in a proportion of 4 mg per cm^2 over the whole of the body, and then left to dry. Nonanal, which is an aldehyde that can be formed following the action of ozone on sebum, is then applied to the skin. An aqueous cosmetic composition containing 1.4% by weight of active materials of a vinylformamide/vinylformamine copolymer sold under the name Lupamine 9030 by the company BASF is prepared. It is applied to the skin in a proportion of 4 mg per cm^2 over the whole of the body, and then left to dry. Nonanal, which is a compound structurally close to those which are formed following the action of ozone on sebum, is then applied to the skin.

For `CCO[Si](CCCN)(OCC)OCC` [APTES, γ-aminopropyltriethoxysilane], the “trapping of nonanal in the skin” value was “trapped”.
